Data as given in patent publication US10345292B2, “Mammalian cell lines expressing functional nematode acetylcholine receptors and use thereof for high-throughput screening assays” (priority 2014, dated 2019).
Like-named read-outs stand apart in the source and are kept apart here.

What was measured:
[1] = target: T1, Hco ACR-16/hRIC3 cell line (Haemonchus contortus, UniProt A9Y2C3); assay: Ca2+ measurement in 384-well plate format on FDSS6000 (Fluo-4AM); format: cell-based
T1 sequence (A9Y2C3 1-494): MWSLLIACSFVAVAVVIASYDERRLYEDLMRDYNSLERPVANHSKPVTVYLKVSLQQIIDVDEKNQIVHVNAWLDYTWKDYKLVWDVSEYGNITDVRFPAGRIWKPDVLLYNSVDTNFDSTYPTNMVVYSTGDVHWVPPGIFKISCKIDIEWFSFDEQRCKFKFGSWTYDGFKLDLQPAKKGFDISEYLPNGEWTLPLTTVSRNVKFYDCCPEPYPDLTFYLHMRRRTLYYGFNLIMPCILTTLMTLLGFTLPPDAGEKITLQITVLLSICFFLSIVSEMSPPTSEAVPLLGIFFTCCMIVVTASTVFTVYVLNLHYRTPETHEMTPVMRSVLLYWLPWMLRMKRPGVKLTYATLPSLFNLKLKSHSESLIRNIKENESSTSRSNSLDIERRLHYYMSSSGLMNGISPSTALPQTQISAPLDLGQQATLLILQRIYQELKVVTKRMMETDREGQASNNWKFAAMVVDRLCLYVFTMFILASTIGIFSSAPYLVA
T1 sequence (Q7Z5B4 29-369 partner): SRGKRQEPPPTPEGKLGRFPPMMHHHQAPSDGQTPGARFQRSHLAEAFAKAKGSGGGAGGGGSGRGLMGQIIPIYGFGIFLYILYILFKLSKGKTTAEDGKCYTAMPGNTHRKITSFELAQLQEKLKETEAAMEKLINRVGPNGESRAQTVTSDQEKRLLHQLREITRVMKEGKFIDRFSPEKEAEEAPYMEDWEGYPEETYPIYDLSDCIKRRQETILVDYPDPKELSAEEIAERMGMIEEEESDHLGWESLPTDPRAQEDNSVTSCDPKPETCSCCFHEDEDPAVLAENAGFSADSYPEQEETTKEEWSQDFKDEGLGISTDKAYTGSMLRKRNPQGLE

[2] = system: Dim ACR-16/Dim RIC3 stable cell line; assay: as above; format: cell-based, Dirofilaria immitis
[3] = target: T2, Hco ACR-16/Hco RIC3 stable cell line (Haemonchus contortus, UniProt A9Y2C3); assay: as above; format: cell-based
T2 sequence (A9Y2C3 1-494): T1 sequence (A9Y2C3 1-494)

[4] = system: Hco ACR-16/hRIC3 stable cell line (Flp-In-293-Hco ACR-16 hRic3); format: cell-based, Haemonchus contortus; parameters: AUC, Mean / AUC, Median: unit not given beside the values

CN1CCCC1c1cccnc1 (stereo not drawn) [Nicotine]
EC50 [1]: 200 nM | EC50 ([2]; read-out: EC50 (FIG. 10, FIG. 11), orthosteric reference agonist, concentration response curve): 350 nM | EC50 ([2]; read-out: EC50 value, Revealed by co-application of PNU-120956): 400 nM

COc1cc(OC)c(NC(=O)Nc2cc(C)on2)cc1Cl [PNU-120956]
EC50 ([1]; four-parameter logistic fit, cell line not named in legend, read-out: XC50 from concentration-response curve (FIG. 8)): 160 nM | EC50 ([3]; Revealed by co-application of EC100 orthosteric reference agonist, read-out: EC50 value): 1400 nM | EC50 ([2]; allosteric modulator response curve, read-out: EC50 (FIG. 12)): 2400 nM

CC(=O)OCC[N+](C)(C)C [Acetylcholine]
EC50 [1]: 480 nM

Clc1ccc(C2CC3CCC2N3)cn1 (stereo not drawn) [Epibatidine]
AUC, Mean [4]: 271.25 | AUC, Median [4]: 253.67 | Ratio, Mean [4]: 2.51 | Ratio, Median [4]: 2.15 | Rmax, Mean [4]: 2.62 | Rmax, Median [4]: 2.34 | Rmin, Mean [4]: 1.02 | Rmin, Median [4]: 1.04 | EC50 [1]: 6 nM | Signal amplitude with 10 μM PNU120596 + 300 nM epibatidine application ([1]; 24 h @ 37° C.): 1503 RFU | Signal amplitude with 10 μM PNU120596 + 300 nM epibatidine application ([1]; 24 h @ 37° C. + 24 h @ 30° C.): 2160 RFU | EC50 [3]: 5 nM | Signal amplitude with 10 μM PNU120596 + 300 nM epibatidine application ([3]; 24 h @ 37° C.): 680 RFU | Signal amplitude with 10 μM PNU120596 + 300 nM epibatidine application ([3]; 24 h @ 37° C. + 24 h @ 30° C.): 1601 RFU | Signal amplitude with 10 μM PNU120596 + 300 nM epibatidine application [2]: 450 RFU | EC50 ([2]; read-out: EC50 (FIG. 10, FIG. 11)): 10 nM | EC50 ([2]; read-out: EC50 value): 5 nM
